Reference: ChEMBL document CHEMBL1146687, “Novel semi-synthetic nocathiacin antibiotics: synthesis and antibacterial activity of bis- and mono-O-alkylated derivatives” (Bioorg Med Chem Lett, 2004)
≈ marks a conversion by molar mass, not a printed value.

Legend:
Type in all cases: functional
Staphylococcus aureus [1] = assay: In vitro antibacterial activity against Staphylococcus aureus
Mus musculus [2] = assay: In vivo efficacy (sc) tested for protection against staphylococcus infections in mice; 1.1-3.3; conditions: read-out: PD50
Enterococcus faecalis = assay: In vitro antibacterial activity against Enterococcus faecalis
Streptococcus pneumoniae [3] = assay: In vitro antibacterial activity against Streptococcus pneumoniae
Mus musculus [4] = assay: In vivo efficacy (sc) tested for protection against staphylococcus infections in mice; 0.3-2.8; conditions: read-out: PD50
Staphylococcus aureus [5] = assay: In vitro antibacterial activity against […]; 0.0070-0.03
Staphylococcus aureus [6] = assay: In vitro antibacterial activity against […]; 0.003-0.007
Staphylococcus aureus [7] = assay: In vivo efficacy;(sc) tested for protection against staphylococcus infections in mice; conditions: read-out: PD50
Streptococcus pneumoniae [8] = assay: In vitro antibacterial activity against Streptococcus pneumoniae; […]

| Compound | MIC (Staphylococcus aureus [1]) | ED50 (Mus musculus [2]) | MIC (Enterococcus faecalis) | MIC (Streptococcus pneumoniae [3]) | ED50 (Mus musculus [4]) | MIC (Staphylococcus aureus [5]) | MIC (Staphylococcus aureus [6]) | ED50 (Staphylococcus aureus [7]) | MIC (Streptococcus pneumoniae [8]) |
| --- | --- | --- | --- | --- | --- | --- | --- | --- | --- |
| CN[C@H](CC(C)C)C(=O)N[C@H]1C(=O)N[C@@H](CC(N)=O)C(=O)N[C@H]2C(=O)N[C@H]3C(=O)N[C@H](C(=O)N[C@H](C(=O)O)c4cc(O)cc(O)c4-c4cc3ccc4O)[C@H](O)c3ccc(c(Cl)c3)Oc3cc2cc(c3O[C@@H]2O[C@H](CO)[C@@H](O)[C@H](O)[C@H]2O[C@H]2C[C@](C)(N)[C@H](O)[C@H](C)O2)Oc2ccc(cc2Cl)[C@H]1O [VANCOMYCIN] | 0.2 µg/mL (≈ 0.138 µM) | < 3.3 mg/kg | < 0.5 µg/mL | – | – | – | – | – | – |
| C=C(NC(=O)c1csc(-c2nc3c(cc2O)-c2nc(cs2)C(=O)N[C@@H]([C@@H](C)O)C(=O)N/C(=C(\C)OC)c2nc(cs2)C(=O)N[C@@H]2c4nc(cs4)C(=O)N[C@@H](COC(=O)c4c5c6c(cccc6n4O)COC(=O)[C@@H](O[C@H]4C[C@](C)(O)[C@H](N(C)C)[C@H](C)O4)[C@H]2OC5)c2nc-3cs2)n1)C(N)=O [MJ347-81F4 A] | – | – | 0.03 µg/mL (≈ 0.0209 µM) | 0.002 µg/mL (≈ 0.00139 µM) | < 2.8 mg/kg | < 0.03 µg/mL | – | – | – |
| C=C(NC(=O)c1csc(-c2nc3c(cc2OC)-c2nc(cs2)C(=O)N[C@@H]([C@@H](C)O)C(=O)N/C(=C(\C)OC)c2nc(cs2)C(=O)N[C@@H]2c4nc(cs4)C(=O)N[C@@H](COC(=O)c4c5c6c(cccc6n4OC)COC(=O)[C@@H](O[C@H]4C[C@](C)(O)[C@H](N(C)C)[C@H](C)O4)[C@H]2OC5)c2nc-3cs2)n1)C(N)=O | – | – | 0.015 µg/mL (≈ 0.0102 µM) | – | – | – | < 0.007 µg/mL | 3.7 mg/kg | < 0.001 µg/mL |
